# Test results from ChEMBL document CHEMBL3046027, “In vitro and in vivo antifungal activity of synthetic pure isothiocyanates against Sclerotinia sclerotiorum” (Pest Manag Sci, 2011).
# Key:
# [1] = tested on: Sclerotinia sclerotiorum; experiment: Antifungal activity against Sclerotinia sclerotiorum assessed as inhibition of mycelial growth in volatile phase at 510 umol/l measured at 20 degC after 5 days; assay type: functional; details: 120 h, read-out: GI
# [2] = tested on: Sclerotinia sclerotiorum; experiment: Fungistatic activity in Sclerotinia sclerotiorum assessed as inhibition of carpogenic germination in volatile phase at 102 umol/l measured at 20 degC after 5 days relative to control; assay type: functional; details: 120 h
# [3] = tested on: Sclerotinia sclerotiorum; experiment: Fungistatic activity in Sclerotinia sclerotiorum assessed as inhibition of carpogenic germination in volatile phase at 51 umol/l measured at 20 degC after 5 days relative to control; assay type: functional; details: 120 h
# [4] = tested on: Sclerotinia sclerotiorum; experiment: Antifungal activity against Sclerotinia sclerotiorum assessed as inhibition of germination in volatile phase at 1022 umol/l measured at 20 degC after 5 days; assay type: functional; details: 120 h
# [5] = tested on: Sclerotinia sclerotiorum; experiment: Antifungal activity against Sclerotinia sclerotiorum assessed as inhibition of germination in volatile phase at 307 umol/l measured at 20 degC after 5 days; assay type: functional; details: 120 h
# [6] = tested on: Sclerotinia sclerotiorum; experiment: Fungistatic activity in Sclerotinia sclerotiorum assessed as inhibition of carpogenic germination in volatile phase at 1020 umol/l measured at 20 degC after 5 days relative to control; assay type: functional; details: 120 h
# [7] = tested on: Sclerotinia sclerotiorum; experiment: Fungistatic activity in Sclerotinia sclerotiorum assessed as inhibition of mycelial growth in volatile phase measured at 20 degC after 5 days; assay type: functional, organism-based; details: 120 h
# [8] = tested on: Sclerotinia sclerotiorum; experiment: Fungistatic activity in Sclerotinia sclerotiorum assessed as inhibition of mycelial growth in volatile phase at 714 umol/l measured at 20 degC after 5 days relative to control; assay type: functional; details: 120 h, read-out: GI
# [9] = tested on: Sclerotinia sclerotiorum; experiment: Antifungal activity against Sclerotinia sclerotiorum assessed as inhibition of germination in volatile phase at 51 umol/l measured at 20 degC after 5 days; assay type: functional; details: 120 h
# [10] = tested on: Sclerotinia sclerotiorum; experiment: Antifungal activity against Sclerotinia sclerotiorum assessed as inhibition of mycelial growth in contact phase at 2043 umol/l measured at 20 degC after 5 days; assay type: functional; details: 120 h, read-out: GI
# [11] = tested on: Sclerotinia sclerotiorum; experiment: Antifungal activity against Sclerotinia sclerotiorum assessed as inhibition of germination in volatile phase at 511 umol/l measured at 20 degC after 5 days; assay type: functional; details: 120 h
# [12] = tested on: Sclerotinia sclerotiorum; experiment: Fungitoxic activity in Sclerotinia sclerotiorum assessed as inhibition of mycelial growth in volatile phase at 1020 umol/l measured at 20 degC after 5 days relative to control; assay type: functional; details: 120 h, read-out: GI
# [13] = tested on: Sclerotinia sclerotiorum; experiment: Antifungal activity against Sclerotinia sclerotiorum assessed as inhibition of germination in volatile phase at 102 umol/l measured at 20 degC after 5 days; assay type: functional; details: 120 h
# [14] = tested on: Sclerotinia sclerotiorum; experiment: Antifungal activity against Sclerotinia sclerotiorum assessed as inhibition of mycelial growth in contact phase at 715 umol/l measured at 20 degC after 5 days; assay type: functional; details: 120 h, read-out: GI
# [15] = tested on: Sclerotinia sclerotiorum; experiment: Antifungal activity against Sclerotinia sclerotiorum assessed as inhibition of mycelial growth in contact phase at 920 umol/l measured at 20 degC after 5 days; assay type: functional; details: 120 h, read-out: GI
# [16] = tested on: Sclerotinia sclerotiorum; experiment: Antifungal activity against Sclerotinia sclerotiorum assessed as inhibition of mycelial growth in contact phase at 3065 umol/l measured at 20 degC after 5 days; assay type: functional; details: 120 h, read-out: GI
# [17] = tested on: Sclerotinia sclerotiorum; experiment: Antifungal activity against Sclerotinia sclerotiorum assessed as inhibition of mycelial growth in contact phase at 1022 umol/l measured at 20 degC after 5 days; assay type: functional; details: 120 h, read-out: GI
# [18] = tested on: Sclerotinia sclerotiorum; experiment: Antifungal activity against Sclerotinia sclerotiorum assessed as inhibition of mycelial growth in volatile phase at 714 umol/l measured at 20 degC after 5 days; assay type: functional; details: 120 h, read-out: GI
# [19] = tested on: Sclerotinia sclerotiorum; experiment: In vivo antifungal Sclerotinia sclerotiorum in Pepper (Capsicum annuum L. cv. Sera Demre) assessed as inhibition of mycelial growth in volatile phase at 204 umol/L measured after 10 to 14 weeks; assay type: functional
# [20] = tested on: Sclerotinia sclerotiorum; experiment: Fungistatic activity in Sclerotinia sclerotiorum assessed as inhibition of mycelial growth in contact phase at 3065 umol/l measured at 20 degC after 5 days relative to control; assay type: functional; details: 120 h, read-out: GI
# [21] = tested on: Sclerotinia sclerotiorum; experiment: Fungistatic activity in Sclerotinia sclerotiorum assessed as inhibition of mycelial growth in contact phase measured at 20 degC after 5 days; assay type: functional, organism-based; details: 120 h
# [22] = tested on: Sclerotinia sclerotiorum; experiment: In vivo antifungal Sclerotinia sclerotiorum in Pepper (Capsicum annuum L. cv. Sera Demre) assessed as inhibition of mycelial growth in volatile phase at 102 umol/L measured after 10 to 14 weeks; assay type: functional
# [23] = tested on: Sclerotinia sclerotiorum; experiment: Fungistatic activity in Sclerotinia sclerotiorum assessed as inhibition of carpogenic germination in volatile phase at 510 umol/l measured at 20 degC after 5 days relative to control; assay type: functional; details: 120 h
# [24] = tested on: Sclerotinia sclerotiorum; experiment: Antifungal activity against Sclerotinia sclerotiorum assessed as inhibition of mycelial growth in volatile phase at 102 umol/l measured at 20 degC after 5 days; assay type: functional; details: 120 h, read-out: GI
# [25] = tested on: Sclerotinia sclerotiorum; experiment: Antifungal activity against Sclerotinia sclerotiorum assessed as inhibition of mycelial growth in volatile phase at 51 umol/l measured at 20 degC after 5 days; assay type: functional; details: 120 h, read-out: GI
# [26] = tested on: Sclerotinia sclerotiorum; experiment: Antifungal activity against Sclerotinia sclerotiorum assessed as inhibition of mycelial growth in volatile phase at 1020 umol/l measured at 20 degC after 5 days; assay type: functional; details: 120 h, read-out: GI
structure (smiles),measurement,setting,value
C=CCN=C=S [ALLYL ISOTHIOCYANATE],inhibition of growth at 510 µM,[1],87%
same,inhibition at 102 µM,[2],67.5%
same,inhibition at 51 µM,[3],60%
same,inhibition at 1022 µM,[4],0%
same,inhibition at 307 µM,[5],0%
same,inhibition at 1020 µM,[6],75%
same,EC50,[7],71.5 µM
same,inhibition of growth at 714 µM,[8],100%
same,inhibition at 51 µM,[9],0%
same,inhibition of growth at 2043 µM,[10],77%
same,inhibition at 511 µM,[11],0%
same,inhibition of growth at 1020 µM,[12],100%
same,inhibition at 102 µM,[13],0%
same,inhibition of growth at 715 µM,[14],32%
same,inhibition of growth at 920 µM,[15],37.7%
same,inhibition of growth at 3065 µM,[16],100%
same,inhibition of growth at 1022 µM,[17],45.5%
same,inhibition of growth at 714 µM,[18],100%
same,inhibition in vivo at 204 µM,[19],81.7%
same,inhibition of growth at 3065 µM,[20],100%
same,EC50,[21],1060 µM
same,inhibition in vivo at 102 µM,[22],76.7%
same,inhibition at 510 µM,[23],67.5%
same,inhibition of growth at 102 µM,[24],50.7%
same,inhibition of growth at 51 µM,[25],45.7%
same,inhibition of growth at 1020 µM,[26],100%
